From patent publication EP0549857A1, “Antibacterial quinolone carboxylic acid derivatives” (KOREA RESEARCH INSTITUTE OF CHEMICAL TECHNOLOGY, priority 1991, dated 1993)
Values after ≈ are worked out from the molar mass of the structure shown. Like-named read-outs stand apart in the source and are kept apart here.

Assays:
[1] = test system: Streptococcus pyogenes 308A; test: In vitro anti-bacterial activity test (MIC, two-fold agar dilution); format: cell-based; details: Mueller-Hinton agar, 10⁷ CFU/mℓ, 37°C, 18 hours, read-out: MIC
[2] = test system: Streptococcus pyogenes 77A; test: as above; format: cell-based; details: Streptococcus pyogenes 77A; Mueller-Hinton agar, 10⁷ CFU/mℓ, 37°C, 18 hours; read-out: MIC
[3] = test system: Streptococcus faecium MD 8b; test: as above; format: cell-based; details: Enterococcus faecium, MD8B; Streptococcus faecium MD 8b; Mueller-Hinton agar, 10⁷ CFU/mℓ, 37°C, 18 hours; read-out: MIC
[4] = test system: Staphylococcus aureus SG 511; test: as above; format: cell-based; details: SG511; Staphylococcus aureus SG 511; Mueller-Hinton agar, 10⁷ CFU/mℓ, 37°C, 18 hours; read-out: MIC
[5] = test system: Staphylococcus aureus 285; test: as above; format: cell-based; details: Staphylococcus aureus 285; Mueller-Hinton agar, 10⁷ CFU/mℓ, 37°C, 18 hours; read-out: MIC
[6] = test system: Staphylococcus aureus 503; test: as above; format: cell-based; details: Staphylococcus aureus 503; Mueller-Hinton agar, 10⁷ CFU/mℓ, 37°C, 18 hours; read-out: MIC
[7] = test system: Escherichia coli O 55; test: as above; format: cell-based; details: O55, Mueller-Hinton agar, 10⁷ CFU/mℓ, 37°C, 18 hours, read-out: MIC
[8] = test system: Escherichia coli DC 0; test: as above; format: cell-based; details: DC0, Mueller-Hinton agar, 10⁷ CFU/mℓ, 37°C, 18 hours, read-out: MIC
[9] = test system: Escherichia coli DC 2; test: as above; format: cell-based; details: DC2, Mueller-Hinton agar, 10⁷ CFU/mℓ, 37°C, 18 hours, read-out: MIC
[10] = test system: Escherichia coli OTEM; test: as above; format: cell-based; details: Mueller-Hinton agar, 10⁷ CFU/mℓ, 37°C, 18 hours, read-out: MIC
[11] = test system: Escherichia coli 1507E; test: as above; format: cell-based; details: Mueller-Hinton agar, 10⁷ CFU/mℓ, 37°C, 18 hours, read-out: MIC
[12] = test system: Pseudomonas aeruginosa 9027; test: as above; format: cell-based; details: Pseudomonas aeruginosa 9027; Mueller-Hinton agar, 10⁷ CFU/mℓ, 37°C, 18 hours; read-out: MIC
[13] = test system: Pseudomonas aeruginosa 1592E; test: as above; format: cell-based; details: Mueller-Hinton agar, 10⁷ CFU/mℓ, 37°C, 18 hours, read-out: MIC
[14] = test system: Pseudomonas aeruginosa 1771; test: as above; format: cell-based; details: Pseudomonas aeruginosa 1771; Mueller-Hinton agar, 10⁷ CFU/mℓ, 37°C, 18 hours; read-out: MIC
[15] = test system: Pseudomonas aeruginosa 1771M; test: as above; format: cell-based; details: 18 h
[16] = test system: Salmonella typhimurium; test: as above; format: cell-based; details: Salmonella enterica, Mueller-Hinton agar, 10⁷ CFU/mℓ, 37°C, 18 hours, read-out: MIC
[17] = test system: Klebsiella aerogenes 1082E; test: as above; format: cell-based; details: Mueller-Hinton agar, 10⁷ CFU/mℓ, 37°C, 18 hours, read-out: MIC
[18] = test system: Klebsiella aerogenes 1522E; test: as above; format: cell-based; details: Mueller-Hinton agar, 10⁷ CFU/mℓ, 37°C, 18 hours, read-out: MIC
[19] = test system: Enterobacter cloacae P99; test: as above; format: cell-based; details: Mueller-Hinton agar, 10⁷ CFU/mℓ, 37°C, 18 hours, read-out: MIC
[20] = test system: Enterobacter cloacae 1321E; test: as above; format: cell-based; details: Mueller-Hinton agar, 10⁷ CFU/mℓ, 37°C, 18 hours, read-out: MIC
[21] = test system: P. mirabilis; test: Preventive effect on the systemic infection; format: in vivo; details: Proteus mirabilis, in Mus musculus, P. mirabilis intraperitoneal infection, NMRI mice, survival on day 7, probit analysis, read-out: ED₅₀
Description: (§1) 10 fold of the pathogen which leads to 100% lethality were injected intraperitoneally to male and female NMRI mice weighing 18 to 20g. Immediately and after 4 hours, the dose of test compounds which was determined by two-fold serial dilution method was administered orally or subcutaneously; and on day 7, the effectiveness was evaluated in terms of ED₅₀ calculated from the number of survived mice by the probit analysis.

[22] = test system: S. aureus 17740; test: Preventive effect on the systemic infection; format: in vivo; details: Staphylococcus aureus, 17740, in Mus musculus, S. aureus 17740 intraperitoneal infection, NMRI mice, survival on day 7, probit analysis, read-out: ED₅₀
Description: as §1

[23] = in vivo; details: female, ICR, mouse
Description: Test compounds were administered to female ICR mice weighing 20 to 25g and on day 14, LD₅₀ was calculated from the number of survived mice by the probit analysis.

[24] = Oral Administration immediately and after 4 hours
[25] = Subcutaneous Injection immediately and after 4 hours

| SMILES | MIC [1] [µg/mL] | MIC [2] [µg/mL] | MIC [3] [µg/mL] | MIC [4] [µg/mL] | MIC [5] [µg/mL] | MIC [6] [µg/mL] | MIC [7] [µg/mL] | MIC [8] [µg/mL] | MIC [9] [µg/mL] | MIC [10] [µg/mL] | MIC [11] [µg/mL] | MIC [12] [µg/mL] | MIC [13] [µg/mL] | MIC [14] [µg/mL] | MIC [15] [µg/mL] | MIC [16] [µg/mL] | MIC [17] [µg/mL] | MIC [18] [µg/mL] | MIC [19] [µg/mL] | MIC [20] [µg/mL] | also measured |
| --- | --- | --- | --- | --- | --- | --- | --- | --- | --- | --- | --- | --- | --- | --- | --- | --- | --- | --- | --- | --- | --- |
| NC1CCC2=C1CN(c1c(F)cc3c(=O)c(C(=O)O)cn(C4CC4)c3c1F)C2 (centres unmarked) [Example 1, 7-[6-amino-3-azabicyclo[3,3,0]oct-1(5)ene-3-yl]-1-cyclopropyl-6,8-difluoro-1,4-dihydro-4-oxoquinoline-3-carboxylic acid] | 0.391 (≈ 1.01 µM) | 0.098 (≈ 0.253 µM) | 0.098 (≈ 0.253 µM) | 0.098 (≈ 0.253 µM) | 0.098 (≈ 0.253 µM) | 0.049 (≈ 0.126 µM) | 0.025 (≈ 0.0645 µM) | 0.391 (≈ 1.01 µM) | 0.098 (≈ 0.253 µM) | 0.049 (≈ 0.126 µM) | 0.049 (≈ 0.126 µM) | 1.56 (≈ 4.03 µM) | 1.56 (≈ 4.03 µM) | 1.56 (≈ 4.03 µM) | 0.391 (≈ 1.01 µM) | 0.049 (≈ 0.126 µM) | 0.007 (≈ 0.0181 µM) | 0.098 (≈ 0.253 µM) | 0.098 (≈ 0.253 µM) | 0.025 (≈ 0.0645 µM) | ED50 [21, 24]: 5.5 mg/kg; ED50 [21, 25]: 1.55 mg/kg; ED50 [22, 24]: 105 mg/kg; ED50 [22, 25]: 25 mg/kg; LD50 at 14 day ([23]; ip): 720 mg/kg; LD50 at 14 day ([23]; po): 4000 mg/kg |
| CNC1CCC2=C1CN(c1c(F)cc3c(=O)c(C(=O)O)cn(C4CC4)c3c1F)C2 (centres unmarked) [Example 2, 1-cyclopropyl-6,8-difluoro-7-[6-methylamino-3-azabicyclo[3,3,0]oct-1(5)ene-3-yl]-1,4-dihydro-4-oxoquinoline-3-carboxylic acid] | 0.195 (≈ 0.486 µM) | 0.098 (≈ 0.244 µM) | 0.098 (≈ 0.244 µM) | 0.049 (≈ 0.122 µM) | 0.098 (≈ 0.244 µM) | 0.049 (≈ 0.122 µM) | 0.013 (≈ 0.0324 µM) | 0.781 (≈ 1.95 µM) | 0.098 (≈ 0.244 µM) | 0.098 (≈ 0.244 µM) | 0.098 (≈ 0.244 µM) | 3.12 (≈ 7.78 µM) | 1.56 (≈ 3.89 µM) | 1.56 (≈ 3.89 µM) | 0.781 (≈ 1.95 µM) | 0.391 (≈ 0.974 µM) | 0.013 (≈ 0.0324 µM) | 0.049 (≈ 0.122 µM) | 0.049 (≈ 0.122 µM) | 0.013 (≈ 0.0324 µM) | ED50 [22, 24]: 112 mg/kg; ED50 [22, 25]: 27 mg/kg; LD50 at 14 day ([23]; ip): 810 mg/kg; LD50 at 14 day ([23]; po): 4100 mg/kg |
| NC1CCC2=C1CN(c1c(F)cc3c(=O)c(C(=O)O)cn(C4CC4)c3c1Cl)C2 (centres unmarked) [Example 3, 7-[6-amino-3-azabicyclo[3,3,0]oct-1(5)ene-3-yl]-1-cyclopropyl-8-chloro-6-fluoro-1,4-dihydro-4-oxoquinoline-3-carboxylic acid] | 0.195 (≈ 0.483 µM) | 0.049 (≈ 0.121 µM) | 0.098 (≈ 0.243 µM) | 0.025 (≈ 0.0619 µM) | 0.049 (≈ 0.121 µM) | 0.049 (≈ 0.121 µM) | 0.049 (≈ 0.121 µM) | 0.781 (≈ 1.93 µM) | 0.049 (≈ 0.121 µM) | 0.098 (≈ 0.243 µM) | 0.098 (≈ 0.243 µM) | 1.56 (≈ 3.87 µM) | 1.56 (≈ 3.87 µM) | 1.56 (≈ 3.87 µM) | 0.391 (≈ 0.968 µM) | 0.049 (≈ 0.121 µM) | 0.013 (≈ 0.0322 µM) | 0.195 (≈ 0.483 µM) | 0.098 (≈ 0.243 µM) | 0.098 (≈ 0.243 µM) | ED50 [21, 24]: 5.9 mg/kg; ED50 [21, 25]: 1.43 mg/kg; LD50 at 14 day ([23]; ip): 731 mg/kg; LD50 at 14 day ([23]; po): 4100 mg/kg |
